In the NIST ThermoML archive (doi:10.1016/j.jct.2016.04.014):
Numbers after ± are expanded uncertainties.

Experiment: xn = mol fraction of the nth substance listed
Conditions: Liquid, Vibrating tube method

CCCCCCCC [octane] + CCCCCCC
mass density [kg/m3]
Conditions | 100 kPa | 500 kPa | 5000 kPa | 10000 kPa | 15000 kPa | 20000 kPa | 25000 kPa | 30000 kPa | 35000 kPa | 40000 kPa
293.15 K, x2 = 0.25 | 698.22 ± 1.7 | 698.6 ± 1.7 | 702.4 ± 1.7 | 706.4 ± 1.7 | 710.2 ± 1.7 | 713.8 ± 1.8 | 717.2 ± 1.8 | 720.4 ± 1.8 | 723.6 ± 1.8 | 726.6 ± 1.8
293.15 K, x2 = 0.5002 | 693.9 ± 1.7 | 694.3 ± 1.7 | 698.1 ± 1.7 | 702.2 ± 1.7 | 706 ± 1.7 | 709.7 ± 1.8 | 713.2 ± 1.8 | 716.5 ± 1.8 | 719.6 ± 1.8 | 722.7 ± 1.8
293.15 K, x2 = 0.7502 | 689 ± 1.7 | 689.4 ± 1.7 | 693.4 ± 1.7 | 697.5 ± 1.7 | 701.4 ± 1.7 | 705.1 ± 1.8 | 708.7 ± 1.8 | 712 ± 1.8 | 715.2 ± 1.8 | 718.4 ± 1.8
303.15 K, x2 = 0.25 | 690.1 ± 1.7 | 690.4 ± 1.7 | 694.5 ± 1.7 | 698.8 ± 1.7 | 702.8 ± 1.7 | 706.6 ± 1.8 | 710.2 ± 1.8 | 713.6 ± 1.8 | 716.9 ± 1.8 | 720.1 ± 1.8
303.15 K, x2 = 0.5002 | 685.6 ± 1.7 | 686 ± 1.7 | 690.2 ± 1.7 | 694.5 ± 1.7 | 698.6 ± 1.7 | 702.5 ± 1.8 | 706.1 ± 1.8 | 709.6 ± 1.8 | 712.9 ± 1.8 | 716.1 ± 1.8
303.15 K, x2 = 0.7502 | 680.7 ± 1.7 | 681 ± 1.7 | 685.3 ± 1.7 | 689.7 ± 1.7 | 693.9 ± 1.7 | 697.8 ± 1.8 | 701.6 ± 1.8 | 705.1 ± 1.8 | 708.5 ± 1.8 | 711.7 ± 1.8
313.15 K, x2 = 0.25 | 681.8 ± 1.7 | 682.2 ± 1.7 | 686.5 ± 1.7 | 691.1 ± 1.7 | 695.4 ± 1.7 | 699.4 ± 1.8 | 703.2 ± 1.8 | 706.8 ± 1.8 | 710.2 ± 1.8 | 713.5 ± 1.8
313.15 K, x2 = 0.5002 | 677.3 ± 1.7 | 677.7 ± 1.7 | 682.1 ± 1.7 | 686.8 ± 1.7 | 691.1 ± 1.7 | 695.2 ± 1.8 | 699.1 ± 1.8 | 702.7 ± 1.8 | 706.2 ± 1.8 | 709.6 ± 1.8
313.15 K, x2 = 0.7502 | 672.2 ± 1.7 | 672.6 ± 1.7 | 677.2 ± 1.7 | 681.9 ± 1.7 | 686.3 ± 1.7 | 690.5 ± 1.8 | 694.4 ± 1.8 | 698.1 ± 1.8 | 701.7 ± 1.8 | 705.1 ± 1.8
323.15 K, x2 = 0.25 | 673.4 ± 1.7 | 673.8 ± 1.7 | 678.5 ± 1.7 | 683.4 ± 1.7 | 687.9 ± 1.7 | 692.1 ± 1.8 | 696.1 ± 1.8 | 699.9 ± 1.8 | 703.6 ± 1.8 | 707 ± 1.8
323.15 K, x2 = 0.5002 | 668.7 ± 1.7 | 669.2 ± 1.7 | 674 ± 1.7 | 678.9 ± 1.7 | 683.6 ± 1.7 | 687.9 ± 1.8 | 692 ± 1.8 | 695.8 ± 1.8 | 699.5 ± 1.8 | 703 ± 1.8
323.15 K, x2 = 0.7502 | 663.5 ± 1.7 | 664 ± 1.7 | 668.9 ± 1.7 | 674 ± 1.7 | 678.7 ± 1.7 | 683.1 ± 1.8 | 687.3 ± 1.8 | 691.2 ± 1.8 | 694.9 ± 1.8 | 698.5 ± 1.8
333.15 K, x2 = 0.25 | 664.9 ± 1.7 | 665.4 ± 1.7 | 670.4 ± 1.7 | 675.6 ± 1.7 | 680.4 ± 1.7 | 684.9 ± 1.8 | 689.2 ± 1.8 | 693.2 ± 1.8 | 696.9 ± 1.8 | 700.6 ± 1.8
333.15 K, x2 = 0.5002 | 660.2 ± 1.7 | 660.6 ± 1.7 | 665.8 ± 1.7 | 671.1 ± 1.7 | 676 ± 1.7 | 680.6 ± 1.8 | 684.9 ± 1.8 | 689 ± 1.8 | 692.8 ± 1.8 | 696.5 ± 1.8
333.15 K, x2 = 0.7502 | 654.8 ± 1.7 | 655.3 ± 1.7 | 660.6 ± 1.7 | 666 ± 1.7 | 671.1 ± 1.7 | 675.8 ± 1.8 | 680.2 ± 1.8 | 684.3 ± 1.8 | 688.2 ± 1.8 | 692 ± 1.8
353.15 K, x2 = 0.25 | 647.5 ± 1.7 | 648.1 ± 1.7 | 653.9 ± 1.7 | 659.9 ± 1.7 | 665.4 ± 1.8 | 670.5 ± 1.8 | 675.2 ± 1.8 | 679.6 ± 1.8 | 683.7 ± 1.8 | 687.7 ± 1.8
353.15 K, x2 = 0.5002 | 642.5 ± 1.7 | 643.1 ± 1.7 | 649.1 ± 1.7 | 655.2 ± 1.7 | 660.8 ± 1.8 | 666 ± 1.8 | 670.8 ± 1.8 | 675.3 ± 1.8 | 679.5 ± 1.8 | 683.6 ± 1.8
353.15 K, x2 = 0.7502 | 636.9 ± 1.7 | 637.4 ± 1.7 | 643.6 ± 1.7 | 649.9 ± 1.7 | 655.7 ± 1.8 | 661 ± 1.8 | 665.9 ± 1.8 | 670.4 ± 1.8 | 674.7 ± 1.8 | 678.9 ± 1.8
373.15 K, x2 = 0.25 | – | 630.3 ± 2.7 | 637.1 ± 2.7 | 644.1 ± 2.7 | 650.3 ± 2.7 | 656 ± 2.7 | 661.2 ± 2.8 | 666.1 ± 2.8 | 670.7 ± 2.8 | 675.1 ± 2.8
373.15 K, x2 = 0.5002 | – | 625 ± 2.7 | 632 ± 2.7 | 639.2 ± 2.7 | 645.6 ± 2.7 | 651.4 ± 2.7 | 656.7 ± 2.8 | 661.7 ± 2.8 | 666.3 ± 2.8 | 670.8 ± 2.8
373.15 K, x2 = 0.7502 | – | 619 ± 2.7 | 626.3 ± 2.7 | 633.6 ± 2.7 | 640.2 ± 2.7 | 646.2 ± 2.7 | 651.7 ± 2.8 | 656.7 ± 2.8 | 661.5 ± 2.8 | 666 ± 2.8
